Data reported in publication PMC3871595, “Structure Based Identification and Characterization of Flavonoids That Disrupt Human Papillomavirus-16 E6 Function” (PLoS ONE, 2013).

What was measured:
[1] = target: E6 fused to a GB1-fusion tag (GBF) (Human papillomavirus type 16, UniProt P03126); test: surface plasmon resonance direct binding, immobilized GBF-E6; set-up: species or system HPV-16; details: 1.6-12.5 µM
Description: A reference cell with immobilized GBF was performed simultaneously for background subtraction. […] While direct binding was observed, the data could not be properly fit to determine binding affinity.
(§1) SPR analysis was performed on a Biacore 3000 instrument. Immobilized GBFE6 [43] was diluted to 30μg/mL in 10 mM sodium acetate, pH 4.0 and 5.0 and immobilized onto the dextran matrix of a CM5 sensor chip (Biacore) using the amine coupling method. All binding experiments were performed at 25 °C in 50 mM phosphate (pH 6.5) containing 200 mM NaCl. Pulses of 10 mM glycine (pH 3.0) were used to regenerate the surfaces between injections. […] SPR data were analyzed using BIAevaluation 4.1 software (Biacore).

[2] = target: GBF-E6 binding to E6apc2 peptide (Human papillomavirus type 16, UniProt P03126); test: SPR competition, immobilized E6apc2 peptide, GBF-E6 analyte; set-up: species or system HPV-16; details: 1.6-12.5 µM
Description: The E6apc2 peptide was derived from the third zinc finger of the Sp1 protein and incorporates 10 amino acids from the charged helical domain of E6AP ([…]) at its C-terminus. […] In this experiment, E6apc2 was immobilized while E6apc1 control (E6-non-binder) was immobilized in a reference cell.
as §1

primary HFKs = test: cell viability (MTS, Celltiter 96 AQueous) primary HFKs; type: cell-based, human; details: 48 hours, relative to DMSO
RPE-1 cells = test: cell viability (MTS, Celltiter 96 AQueous) RPE-1; type: cell-based, human; details: RPE-1 (HPV negative), 48 to 96 hours, relative to DMSO
[3] = test system: interaction between anti-FLAG antibody and the FLAG epitope in the E6AP-BAP fusion; test: FLAG/BAP specificity filter binding assay
Description: The collection of 72 available structural-lead compounds was tested in the filter-plate based in vitro E6-E6AP binding assay. Compounds were tested twice at concentrations of 10, 50, and 100 µM. […] Compounds that disrupted the Flag-BAP interaction with the same potency as the HPV-16 E6 and E6AP interaction were classified as non-specific and eliminated from further analysis.
Figure 3 Activity of flavonoids in the in vitro binding assay. Compounds were tested in vitro for the ability to disrupt the E6-E6AP interaction. […] Percent inhibition was determined by the amount of BAP activity remaining in the well after washing and normalized to DMSO. Data was plotted by linear regression for single site binding using Prism (n=3, S.E.M.).
This interaction between E6 and hDlg occurs at the C-terminus of E6 and is independent of the interaction between E6 and the charged leucine helix in E6AP [21, 22].

C33a cells = test: cell viability (MTS, Celltiter 96 AQueous) C33a; type: cell-based, human; details: C33a (HPV negative), 48 to 96 hours, relative to DMSO
Description: HPV-18 positive HeLa cells and two additional control cell lines, C33a, a cell line derived from an HPV-negative human cervical cancer isolate, and HaCat, a spontaneously immortalized human keratinocyte cell line, were used to assess compounds for their impact on cell growth and viability. All cells were incubated for 48 to 96 hours with increasing doses of compound. Cell viability was measured by MTS based assay and % viability quantified relative to cells treated with DMSO.
For cell viability, 12,000 cells per cm^2 were plated in 96-well dishes 24 hours prior to drug addition. Fresh media and compound were added. Plates were read after 72-96 hours. Relative cell viability was assayed as directed in the Celltiter 96 AQueous one solution assay (Promega). For caspase activity, plates were assayed after 4, 8, 12, 24, or 48 hours as described for the Caspase-Glo 3/7 assay (Promega).

Chain of E6 fused to a GB1-fusion tag (GBF) (P03126 whole entry, the tested form may be a part): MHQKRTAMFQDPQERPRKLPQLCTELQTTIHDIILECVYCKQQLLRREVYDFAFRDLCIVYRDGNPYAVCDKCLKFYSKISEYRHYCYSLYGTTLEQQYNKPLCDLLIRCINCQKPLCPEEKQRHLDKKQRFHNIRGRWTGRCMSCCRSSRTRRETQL
Chain of GBF-E6 binding to E6apc2 peptide (P03126 whole entry, the tested form may be a part): as above

Compound | direct binding to E6 (SPR response) [1] | competition with E6apc2 peptide for binding to GBF-E6 [2] | cell growth and viability (primary HFKs) | cell growth and viability (RPE-1 cells) | non-specific inhibition / specificity in FLAG-E6AP control assay [3] | cell growth and viability (C33a cells)
O=c1cc(-c2ccc(O)c(O)c2)oc2cc(O)cc(O)c12 [luteolin, reference compound] | directly binds to E6 protein | directly competed with the peptide for binding to GBF-E6 | – | – | – | –
COc1cccc(-c2cc(=O)c3cc(-c4nnn[nH]4)ccc3o2)c1 [CAF-24] | – | – | to a lesser extent, inhibit growth of the primary HFKs | little effect on the viability | increased specificity against the FLAG and hDlg control binding reactions | little effect on the viability
